Data on two compounds can be found in patent publication US9814709B2, “Bruton's tyrosine kinase inhibitor” (HEFEI INSTITUTES OF PHYSICAL SCIENCE, CHINESE ACADEMY OF …, priority 2014, dated 2017).

Type in all cases: cell-based
Assay [1] relates to mouse TEL-EGFR/L858R-BaF3 cells (stably expressing TEL-EGFR-L858R activated mutant kinase). The assay can be described thus: Cell growth, Cell Titer-Glo. Conditions: TEL-EGFR/L858R-BaF3, 72 hrs, read-out: Half inhibitory concentration IC50. An excerpt: (§1) We further assessed the selectivity of Compound 1 to inhibit the proliferation of cancer cells, by testing the effect of Btk inhibitor on the growth of cancer cells. In the example, we used B-lymphoma cell Ramos, cervical cancer cells HeLa, prostate cancer cells DU145, RV-1 and C4-2, colon cancer cells HCT116, blood cancer cells K562, B-cell lymphoma cells U2932, diffuse large B-cell lymphoma cells OCI-LY10, diffuse histiocytic lymphoma cells SU-DHL-2, diffuse large B-cell lymphoma cells TMD8, human non-small cell lung cancer cells H1975 (expressing EGFR L858R/T790M double mutant gene), human lung adenocarcinoma cells A549 (expressing wild-type EGFR gene), human non-small cell lung cancer cells H460 (expressing wild-type EGFR gene), mantel cell lymphoma (MCL) cells Z-138, EB virus infected human peripheral lymphocyte cells JVM-2, MCL cells REC-1, leukemia cells AML-3, acute promyelocytic leukemia cell line NB-4(Lu+), MDS-RAEB (myelodysplastic syndrome-excessive blasts) cell line SKM-1 human leukemia cell Nomo-1, human B-cell leukemia cell line NALM6, human leukocyte leukemia cells HEL, human T-cell lymphoma cells PF-382, acute myelocytic leukemia (AML) cell line MOLM14, AML cell line MOLM13, human Burkitt's lymphoma cells Namalwa, mouse pro-B cells BaF3, all of where were purchased from ATCC. Also used were mouse TEL-EGFR-BaF3 (stably expressing TEL-EGFR activated kinase), mouse TEL-EGFR/T790-BaF3 cells (stably expressing TEL-EGFR-T790M activated mutant kinase), mouse TEL-EGFR/L858R-BaF3 cells (stably expressing TEL-EGFR-L858R activated mutant kinase), mouse TEL-EGFR/T790/L858R-BaF3 (stably expressing TEL-EGFR-T790M/L858R activated mutant kinase), mouse TEL-BMX-BaF3 cells (stably expressing TEL-BMX activated kinase), mouse TEL-JAK1-BaF3 cells (stably expressing TEL-JAK1 activated kinase), mouse TEL-JAK2-BaF3 cells (stably expressing TEL-JAK2 activated kinase), mouse TEL-JAK3-BaF3 cells (stably expressing TEL-JAK3 activated kinase), where were all established by our laboratory via the following method: the kinase domain sequences of human EGFR, BMX, JAK1, JAK2, JAK3 were amplified respectively by PCR, and these kinase were inserted into the MSCV-Puro vectors with N-terminal TEL segment (Clontech); if there was a mutation, the mutation of the corresponding site was conducted by Site-Directed Mutagenesis kit (Stratagene); the resultants were stably transfected into mouse BaF3 cells by the means of retrovirus, and the IL-3 growth factors were removed, and eventually the EGFR, BMX, JAK1, JAK2, JAK3-transferred protein dependent cell lines were obtained.
(§2) In the example, different concentrations (0.000508 μM, 0.00152 μM, 0.00457 μM, 0.0137 μM, 0.0411 μM, 0.123 μM, 0.370 μM, 1.11 μM, 3.33 μM, 10 μM) of Compound 1 and Compound 19 were added into above cells, and were incubated for 72 hrs. The number of viable cells was determined by quantitating ATP in viable cells using Cell Titer-Glo® (Promega, U.S.) chemiluminescence cell viability assay kit.

The test system of assay [2] is mouse TEL-EGFR/T790/L858R-BaF3 (stably expressing TEL-EGFR-T790M/L858R activated mutant kinase). The assay can be described thus: Cell growth, Cell Titer-Glo. The following applies: TEL-EGFR/T790/L858R-BaF3, 72 hrs, read-out: Half inhibitory concentration IC50.
Excerpt: as §1, §2

In assay [3] the test system is mouse TEL-EGFR/T790-BaF3 cells (stably expressing TEL-EGFR-T790M activated mutant kinase). Nature of the assay: Cell growth, Cell Titer-Glo. Conditions: TEL-EGFR/T790-BaF3, 72 hrs, read-out: Half inhibitory concentration IC50.
Excerpt: as §1, §2

Assay [4] concerns mouse TEL-JAK2-BaF3 cells (stably expressing TEL-JAK2 activated kinase). The assay can be described thus: Cell growth, Cell Titer-Glo. The following applies: TEL-JAK2-BaF3, 72 hrs, read-out: Half inhibitory concentration IC50.
Excerpt: as §1, §2
(In ATP-based viability assays light output follows the ATP content of the culture.)

Assay [5] concerns mouse TEL-EGFR-BaF3 (stably expressing TEL-EGFR activated kinase). The assay can be described thus: Cell growth, Cell Titer-Glo. The following applies: TEL-EGFR-BaF3, 72 hrs, read-out: Half inhibitory concentration IC50.
Excerpt: as §1, §2

Assay [6] has as its system mouse TEL-JAK3-BaF3 cells (stably expressing TEL-JAK3 activated kinase). Nature of the assay: Cell growth, Cell Titer-Glo. The following applies: TEL-JAK3-BaF3, 72 hrs, read-out: Half inhibitory concentration IC50.
Excerpt: as §1, §2

Assay [7] relates to mouse pro-B cells BaF3. Nature of the assay: Cell growth, Cell Titer-Glo. The following applies: BaF3, 72 hrs (listed twice in Table 3), read-out: Half inhibitory concentration IC50.
Excerpt: as §1, §2

The test system of assay [8] is mouse TEL-JAK1-BaF3 cells (stably expressing TEL-JAK1 activated kinase). Nature of the assay: Cell growth, Cell Titer-Glo. The following applies: TEL-JAK1-BaF3, 72 hrs, read-out: Half inhibitory concentration IC50.
Excerpt: as §1, §2

In assay [9] the test system is mouse TEL-BMX-BaF3 cells (stably expressing TEL-BMX activated kinase). Nature of the assay: Cell growth, Cell Titer-Glo. Conditions: TEL-BMX-BaF3, 72 hrs, read-out: Half inhibitory concentration IC50.
Excerpt: as §1, §2

Assay [10] has as its system leukemia cells AML-3. The assay can be described thus: Cancer cell growth, Cell Titer-Glo. The following applies: AML3; AML-3, 72 hrs; read-out: Half inhibitory concentration IC50.
Excerpt: as §1, §2

Assay [11] deals with human leukocyte leukemia cells HEL. Nature of the assay: Cancer cell growth, Cell Titer-Glo. Conditions: 72 hrs, read-out: Half inhibitory concentration IC50.
Excerpt: as §1, §2

Assay [12] relates to colon cancer cells HCT116. The assay can be described thus: Cancer cell growth, Cell Titer-Glo. The following applies: Homo sapiens, HCT-116; HCT116, 72 hrs; read-out: Half inhibitory concentration IC50.
Excerpt: as §1, §2

Assay [13] concerns human lung adenocarcinoma cells A549 (expressing wild-type EGFR gene). The assay can be described thus: Cancer cell growth, Cell Titer-Glo. The following applies: A549, 72 hrs, read-out: Half inhibitory concentration IC50.
Excerpt: as §1, §2

Assay [14] has as its system diffuse large B-cell lymphoma cells OCI-LY10. The assay can be described thus: Cancer cell growth, Cell Titer-Glo. The following applies: Homo sapiens; OCI-LY10, 72 hrs; read-out: Half inhibitory concentration IC50.
Excerpt: as §1, §2

Where two headings read alike, the source gives them in different places.

`CCC(=O)Nc1cc(-n2c(=O)ccc3cnc4ccc(-n5cccn5)cc4c32)ccc1C` [Compound 19, N-(2-methyl-5-(2-oxo-9-(1H-pyrazol-1-yl)benzo[H][1,6]naphthyridin-1(2H)-yl)phenyl) propionamide]: the IC50 in assay [1], in assay [2], in assay [3], in [4], in [5] and in assay [6] was > 10 µM throughout. Moreover, the IC50 in assay [7] (Mus musculus, BaF3, 72 h) was > 10 µM; in assay [8] it was > 10 µM; in assay [9], > 10 µM; in assay [10] it was > 10 µM; in [11] it was > 10 µM; in assay [12], > 10 µM. Further, the IC50 in assay [13] and in assay [14] was > 10 µM throughout.
For the compound `C=CC(=O)Nc1cc(-n2c(=O)ccc3cnc4ccc(-n5cccn5)cc4c32)ccc1C` [Compound 1, N-(2-methyl-5-(2-oxo-9-(1H-pyrazol-1-yl)benzo[H][1,6]naphthyridin-1(2H)-yl)phenyl)acrylamide], the IC50 in assay [1] is 0.292 µM; in assay [2], 1.59 µM; in [3], 0.918 µM; in assay [4] it was 2.1 µM; in [5], 2.66 µM; in [6], 2.3 µM. Moreover, the IC50 in [7] turned out to be 4.28 µM; in assay [7] (Mus musculus, BaF3, 72 h), 4.2 µM; in assay [8], 1.6 µM; in assay [9] it was 0.018 µM; in assay [10], 7.3 µM; in [11], 1.8 µM. The IC50 was > 10 µM in assay [12], 3.76 µM in [13] and > 10 µM in assay [14].
